What was measured:
[1] = ORAC assay (oxygen radical absorbance capacity); details: for ORAC value compared to quercetin: 10 µM; for ORAC value (AUCnet): 2 and 10 µM
Description: The oxygen radical absorbance capacity was evaluated using the ORAC assay. The test was carried out in a black 96-well plate with a black bottom. The stock solutions of 50 nM fluorescein and 180 mM AAPH in phosphate buffer (75 mM, pH 7.00) were prepared freshly and used on the same day. To each well, 20 µL of compound in ACN (2 and 10 µM) was added to 160 µL fluorescein. In the case of blank samples, 20 µL of ACN was added. The plate was incubated for 15 min at 37 °C, and then the 20 µL AAPH solution was rapidly added to each well to initiate the reaction. The fluorescence was monitored at 485 nm excitation and 520 nm emission wavelength for 2 h every 2 min by the FLUOstar OPTIMA (BMG Labtech, Ortenberg, Germany) plate reader. The assay was performed in duplicate and repeated three times. The area under the curve (AUC) was calculated as follows:AUC = 0.5 + (A1/A0) + (A2/A0) + (A3/A0) + ⋯ + (An/A0),(1) where A0 is the fluorescence reading at 0 min and An is the fluorescence reading at n min. The reported ORAC values were calculated by subtracting the blank AUC from the sample AUC and expressed as AUCnet. AUCnet = AUCsample − AUCblank(2)

H9c2 cells = assay: MTT cell viability assay; type: cell-based; details: 20 µM, 12 h
Description: (§1) The MTT assay was used to determine the effect of the investigated compounds on the cell viability. H9c2 cells (ATCC, CRL-1446, LGC Standards GmbH, Wesel, Germany) were seeded into 96-well plates at a density of 6000 cells/well in 200 µL media (DMEM, high glucose, pyruvate from Thermo Fischer Scientific with 10% FBS and supplemented with penicillin and streptomycin) and cultured overnight. The flavonols were added to the cells in 20 µM concentration. After 12 h, 20 μL of MTT solution ([…] in PBS) was added to each well, and the plates were incubated for 4 h. Afterwards, the media was carefully removed and 100 μL DMSO was added to each well to dissolve the formazan crystals. Absorbance was measured at 540 and 630 nm using a Synergy HT plate reader (BioTek, Winooski, VT, USA). The tests were carried out in triplicate and repeated two times.

[2] = FRAP assay (ferric reducing antioxidant power); details: all tested concentrations (10–200 µM), 30 min incubation
Description: The ferric reducing antioxidant power of the compounds was tested with a modified method of Benzie and Strain [37]. The FRAP reagent consisted of 10 mL acetate buffer (300 mM, pH 3.6), 1 mL TPTZ solution (10 mM) in 40 mM HCl, and 1 mL FeCl3 (10 mM). The mixture was incubated at 37 °C for 15 min and used on the same day. The reaction mixture was prepared by 20 µL of the investigated compound (10, 20, 50, 100, and 200 µM) and 180 µL activated FRAP reagent in a 96-well plate. Following a 30 min incubation period, the absorbance was measured at 593 nm by a Multiskan GO microplate spectrophotometer (Thermo Fisher Scientific, Waltham, MA, USA). Iron (II) sulfate heptahydrate was used as the standard in different concentrations (0.5, 1, 5, 10, 50, 100, and 500 µM). The FRAP values are expressed as µM ferrous equivalents. The experiments were run in duplicate and repeated three times.

[3] = parameters: method as in ref 29 (Deng et al.); details: ref 29 (Deng et al.); cited from earlier work
[4] = DPPH radical scavenging assay; details: from inhibition percentage at 90 min, concentration range 10–200 µM
Description: The method used for the DPPH radical scavenging assay was adopted from Clarke et al., with modifications. A total of 180 µL freshly made 0.2 mM DPPH solution in methanol was added to 20 µL of the investigated compounds in various concentrations (10, 20, 50, 100, and 200 µM) in DMSO. After a gentle, 10-s mixing period, the plate was kept in the dark for 90 min. and the absorbance was read at 515 nm using a Multiskan GO microplate spectrophotometer (Thermo Fisher Scientific, Waltham, MA, USA) at 0, 1, 2, 3, 4, 5, 10, 15, 30, 45, 60, 75, and 90 min. Blanks (20 µL DMSO with 180 µL MeOH) and quercetin standards in the same concentration as the tested compounds were measured simultaneously. The IC50 values were calculated based on the inhibition percentage measured at 90 min. The measurements were performed in duplicate and repeated three times.

[5] = ABTS radical scavenging assay; details: from inhibition percentage at 120 min, concentration range 10–200 µM
Description: To measure the ABTS radical scavenging activity, the work of Sugahara et al. and Re et al. was followed closely, applying few alterations. A mixture containing 7 mM ABTS and 2.45 mM K2S2O8 in water was kept in the dark for 16 h to form ABTS^•+. The working solution was prepared by adding 150 µL of ABTS^•+ solution to 2.9 mL MeOH. Aliquots of 180 µL of this working solution were pipetted into wells containing 20 µL of test samples in DMSO with different concentrations (10, 20, 50, 100, and 200 µM). Absorbance was measured at 737 nm after 10 s mixing using a Multiskan GO microplate spectrophotometer (Thermo Fisher Scientific, Waltham, MA, USA) at 0, 1, 2, 3, 4, 5, 10, 15, 30, 45, 60, 75, 90, 105, and 120 min. Quercetin was used as the standard. The IC50 values were calculated based on the inhibition percentage measured at 120 min. The experiments were carried out in duplicate and repeated three times.

[6] = Chemical Fenton reaction (biomimetic model of phase I biotransformation); type: in vitro ADME; details: ESI-MS and LC-MS detection
Description: The Fenton reaction of the compounds was carried out based on a method reported previously by Csepanyi et al.. The reaction mixture consisted of 400 μL 2.5 mM of the investigated compound in ACN, 50 μL 20 mM FeCl3, 50 μL 20 mM EDTA-Na2, and 500 μL 10 mM ascorbic acid in ACN/H2O (50:50) and 2 μL 30% hydrogen peroxide. The reaction mixture was stirred at room temperature at 700 rpm. Samples were drawn at 2, 24, 72, and 144 h and were diluted with ACN/H2O (50:50) and analyzed immediately by an API 2000 Triple Quadrupole mass spectrometer (Applied Biosystems, Waltham, MA, USA) equipped with a syringe pump with the following parameters: 20 μL/min flow rate, 10 PSI curtain gas, 20 V declustering potential, 4000 V ion spray voltage, 400 V focusing potential, and 200 °C ion source temperature. The positive ion electrospray mass spectra were recorded in the range of m/z 100–500 using Analyst 1.5.1. Software (AB SCIEX, Concord, ON, Canada). In additional experiments, the reaction mixture was separated and analyzed with an LTQ XL linear ion trap mass spectrometer coupled with the Accela LC system (Thermo Fisher Scientific, Waltham, MA, USA). The HPLC separation was performed using a Kinetex XB-C18 2.6 μm column, 0.1% formic acid in water, and ACN with 0.1% formic acid with gradient elution, and the flow rate was set to 300 μL/min. […]

[7] = parameters: method as in ref 20 (Culhaoglu et al.); details: ref 20 (Culhaoglu et al.); cited from earlier work
[8] = parameters: method as in ref 20 (Culhaoglu et al.); details: ref 20 (Culhaoglu et al.); cited from earlier work; remark: listed apart in the source
[9] = parameters: method as in PMID 28383511; details: cited from earlier work
MTT cell viability assay = type: cell-based; details: rat, H9c2 cells, read-out: cell viability compared to the control
Description: as §1

| Compound | melting point | IC50 DPPH scavenging [4] | ORAC value (AUCnet) [1] | cytotoxic activity (cell viability) (H9c2 cells) | FRAP value [2] | other results |
| --- | --- | --- | --- | --- | --- | --- |
| O=c1c(O)c(-c2ccc(O)c(O)c2)oc2cc(O)cc(O)c12 [quercetin] |  |  |  |  |  | FRAP value relative to the methylated form [3]: 650 times |
| CN(C)c1ccc(-c2oc3ccccc3c(=O)c2O)cc1 [4′-N,N-dimethylamino-3-OH-flavon] |  |  |  |  |  | scavenging of DPPH radicals [7]: significant scavenging; scavenging of ABTS radicals [8]: significant scavenging |
| CN(C)c1ccc(-c2cc(=O)c3ccccc3o2)cc1 [4′-N,N-dimethylamino-flavon] |  |  |  |  |  | radical scavenger activity [9]: good radical scavenger |

Now from value to compound, other results behind:

| melting point | IC50 DPPH scavenging [4] | Compound | ORAC value (AUCnet) [1] | cytotoxic activity (cell viability) (H9c2 cells) | FRAP value [2] | other results |
| --- | --- | --- | --- | --- | --- | --- |
| 187.7 to 188.8 °C |  | COc1ccc(-c2oc3ccc(-c4cccc(N(C)C)c4)cc3c(=O)c2O)cc1OC [6a, 2-(3,4-Dimethoxyphenyl)-6-[3-(dimethylamino)phenyl]-3-hydroxy-4H-chromen-4-one] | highest ORAC value | did not exhibit cytotoxic activity | highest FRAP values | ORAC value compared to quercetin [1]: comparable to quercetin |
| 208.1 to 209.2 °C | lower antioxidant potency | COCc1ccc(-c2ccc3c(=O)c(O)c(-c4cc(OC)c(OC)c(OC)c4)oc3c2)cc1 [6f, 3-Hydroxy-7-[4-(methoxymethyl)phenyl]-2-(3,4,5-trimethoxyphenyl)-4H-chromen-4-one] |  | significantly decreased the viability of cells | significantly lower ferrous equivalents |  |
|  | lowest IC50 value | COc1ccc(-c2oc3cc(-c4cccc(N(C)C)c4)ccc3c(=O)c2O)cc1OC [6c, 2-(3,4-Dimethoxyphenyl)-7-[3-(dimethylamino)phenyl]-3-hydroxy-4H-chromen-4-one] | fourth highest capacity | did not exhibit cytotoxic activity | highest FRAP values | IC50 ABTS radical cation scavenging [5]: lowest IC50 value; oxidative transformation products (potential metabolites) [6]: two potential metabolites were detected |
| 192.8 to 194.3 °C |  | COCc1ccc(-c2ccc3oc(-c4ccc(OC)c(OC)c4)c(O)c(=O)c3c2)cc1 [6b, 2-(3,4-Dimethoxyphenyl)-3-hydroxy-6-[4-(methoxymethyl)phenyl]-4H-chromen-4-one] | highest ORAC value | significantly decreased the viability of cells | significantly lower ferrous equivalents |  |
| 179.5 to 181.8 °C | lower antioxidant potency | COc1cc(-c2oc3cc(-c4cccc(N(C)C)c4)ccc3c(=O)c2O)cc(OC)c1OC [6e, 7-[3-(Dimethylamino)phenyl]-3-hydroxy-2-(3,4,5-trimethoxyphenyl)-4H-chromen-4-one] | highest ORAC value | did not exhibit cytotoxic activity | highest FRAP values | ORAC value compared to quercetin [1]: comparable to quercetin |
| 212.1 to 214.2 °C |  | COCc1ccc(-c2ccc3c(=O)c(O)c(-c4ccc(OC)c(OC)c4)oc3c2)cc1 [6d, 2-(3,4-Dimethoxyphenyl)-3-hydroxy-7-[4-(methoxymethyl)phenyl]-4H-chromen-4-one] |  | significantly decreased the viability of cells | significantly lower ferrous equivalents | viability at 12 h, 20 µM (MTT cell viability assay): 46% |

From paper PMC6320925, “Synthesis, In Vitro Biological Evaluation, and Oxidative Transformation of New Flavonol Derivatives: The Possible Role of the Phenyl-N,N-Dimethylamino Group” (Molecules, 2018)
